Entries after “also recorded” stand apart in the source; their conditions may differ.
Columns and labels:
MDA-CAIX tumor cells = test: Retention and surface exposure of CAIX bispecific adapters in MDA-CAIX tumor cells from treated mice; type: in vivo, mouse; settings: for CAIX levels of tumor cells (MFI of FITC after staining with 100 nM meta-CAL-PEG6-FITC in vitro): MDA-CAIX tumors from treated mice, FIG. 11C
Protocol: MDA-CAIX tumors from mice in different treatment groups were dissected and digested into single cells 24 hours after the last injections with CAIX bispecific adapters at 500 nmol/kg. The total retention of the bispecific adapters was determined by the FITC fluorescence intensity analyzed by flow cytometry. To estimate the CAIX protein levels in the tumor cells, the cells were stained with 100 nM meta-CAL-PEG6-FITC for 1 hour at room temperature and analyzed by flow cytometry. The FITC exposure of the bispecific adapters on the tumor cell surface was analyzed by flow cytometry after staining with APC-anti-FITC antibody on ice for 30 minutes. Surface exposure of FITC was also analyzed in the cells stained with 100 nM meta-CAL-PEG6-FITC.

MDA-CAIX tumors = test: In vivo efficacy of CAIX targeting bispecific adapters on MDA-CAIX tumor model; design: species or system mouse; settings: NSG mice, subcutaneous MDA-CAIX, 10 million anti-FITC CAR T-cells plus adapter; FIG. 10B
Protocol: (§1) MDA-CAIX cells (5 million) were implanted into each NSG mouse by subcutaneous injection. When the tumor volumes reached about 100 mm^3, the treatment groups were injected with 10 million anti-FITC CAR T-cells and indicated bispecific adapters as shown in FIG. 10A. The tumor volume and body weight were monitored regularly. Tumor volume was calculated using the formular: (length*width^2)/2.

[1] = Body weight change of mice in KB tumor model; type: in vivo, mouse; settings: KB tumor-bearing NSG mice; FIG. 16C
Protocol: as §1, with “KB” for “MDA-CAIX”, “(1” for “(5”, “50” for “100”, “CAR-T cells” for “CAR T-cells”, “16A.” for “10A.”, “formula:” for “formular:”

[2] = system: anti-FITC CAR-T cells co-cultured with HT29 cells; test: Bispecific adapter mediated anti-FITC CAR-T cell IFNγ release when co-cultured with HT29 cells (ELISA); type: cell-based; settings: HT29 cells at 1:5 ratio, 40 hours
Protocol: (§2) Anti-FITC CAR-T cells were incubated with HT29 cells at 1:5 ratio in the presence of the bispecific adapters at different concentrations for 40 hours. Secretion of IFNγ from anti-FITC CAR-T cells was analyzed by ELISA using the supernatants of the co-cultured medium at the end of the co-culture study.
as §2, with “CAR T” for “CAR-T”

[3] = Body weight change of mice in HT29 tumor model; type: in vivo, mouse; settings: HT29 tumor-bearing NSG mice treated with anti-FITC CAR-T cells plus adapter; FIG. 7C
Protocol: as §1, with “HT29” for “MDA-CAIX”, “(1.5” for “(5”, “NOD scid gamma (NSG)” for “NSG”, “CAR-T cells” for “CAR T-cells”, “and” for “and indicated”, “7A.” for “10A.”

HT29 tumor = test: In vivo efficacy of CAIX targeting bispecific adapters on HT29 tumor model; design: species or system mouse; settings: NSG mice, subcutaneous HT29, 10 million anti-FITC CAR-T cells plus adapter; FIG. 7B
Protocol: as §1, with “HT29” for “MDA-CAIX”, “(1.5” for “(5”, “NOD scid gamma (NSG)” for “NSG”, “CAR-T cells” for “CAR T-cells”, “and” for “and indicated”, “7A.” for “10A.”

MDA-CAIX cells [4] = test: Bispecific adapter mediated anti-FITC CAR-T cell cytotoxicity to MDA-CAIX cells; type: cell-based
Protocol: (§3) Anti-FITC CAR-T cells were incubated with an equal number of MDA-CAIX cells in the presence of bispecific adapters at different concentrations. The number of MDA-CAIX cells was determined at the end of the co-culture, and the percentage of cell lysis was calculated using the following formula: [(number of untreated cells−number of treated cells)/number of untreated cells]*100%.
as §3, with “presence of the bispecific adapters” for “presence of bispecific adapters”
Anti-FITC CAR T cells were incubated with an equal number of MDA-CAIX cells in the presence of the bispecific adapters at different concentrations. The number of MDA-CAIX cells were determined at the end of the co-culture and the percentage of cell lysis was calculated using the following formula: [(number of untreated cells−number of treated cells)/number of untreated cells]*100%.

[5] = system: anti-FITC CAR-T cells co-cultured with MDA-CAIX cells; test: Bispecific adapter mediated IFNγ release from anti-FITC CAR-T cells co-cultured with MDA-CAIX cells (ELISA); type: cell-based; settings: adapter concentration between 0.001 nM and 1 nM; MDA-CAIX co-culture; FIGS. 4B, 5B
Protocol: as §3
Secretion of interferon gamma (IFNγ) from anti-FITC CAR-T cells was analyzed by enzyme-linked immunosorbent assay (ELISA) using the supernatants of the co-cultured medium at the end of the co-culture.
Secretion of IFNγ from anti-FITC CAR T cells was analyzed by ELISA using the supernatants of the co-cultured medium at the end of the co-culture.
Secretion of IFNγ from anti-FITC CAR T cells was analyzed by ELISA using the supernatants of the co-cultured medium at the end of the co-culture study.

HT29 tumor cells = test: Retention and surface exposure of CAIX bispecific adapters in HT29 tumor cells from injected mice; type: in vivo, mouse; settings: 500 nmol/kg, 24 hours after injection, APC-anti-FITC staining; FIG. 8C
Protocol: HT29 tumor bearing mice were injected with CAIX bispecific adapters at 500 nmol/kg. After injection (24 hours later), the tumors were dissected and digested into single cells. The total retention of the bispecific adapters was determined by the FITC fluorescence intensity analyzed by flow cytometry. To analyze the FITC exposure of the bispecific adapters on the tumor cell surface, the digested tumor cells were stained with APC-anti-FITC antibody on ice for 30 minutes. After washing away unbound antibody, the fluorescent intensity of APC was analyzed by flow cytometry.

T cells = test: T cell counts in the blood and HT29 tumors from mice at end of treatments; design: species or system mouse; settings: end of HT29 in vivo study
Protocol: At the end of the in vivo study on HT29 solid tumor model described in FIGS. 7A-7C, blood was collected from the mice, and the red blood cells in the blood were lysed by using red blood cell lysis buffer (BioLegend, San Diego, CA). The remaining cells were stained with anti-human CD3 antibody on ice for 30 minutes. The number of T cells was analyzed by flow cytometry. To analyze tumor-infiltrated T cells, tumors were dissected and digested to single cells. The digested cells were stained with Zombie Violet cell viability staining dye (BioLegend. San Diego, CA) and anti-human CD3 antibody. The percentage of CD3 T cells in total live cells was analyzed by flow cytometry.

HT29 cells = test: Total binding and FITC surface exposure of CAIX bispecific adapters on HT29 cells; type: cell-based; settings: 1 μM adapter, 1 hour room temperature; FIG. 3A
Protocol: (§4) HT29 cells or MDA-CAIX cells were incubated with 1 μM bispecific adapters with different ligands to CAIX and different polyethylene glycol (PEG) linkers in complete RPMI medium (RPMI+10% FBS) for one hour at room temperature. Free compounds were washed away, and fluorescent intensity of fluorescein isothiocyanate (FITC) was analyzed by flow cytometry.
(§5) To analyze the surface exposure of the FITC moiety, the stained cells were incubated with allophycocyanin (APC)-anti-FITC antibody on ice for 30 minutes. Then the cells were washed, and the fluorescent intensity of APC was analyzed by flow cytometer.

MDA-CAIX cells [6] = test: Total binding and FITC surface exposure of CAIX bispecific adapters on MDA-CAIX cells; type: cell-based; settings: 1 μM adapter, 1 hour room temperature; FIG. 3C
Protocol: as §4, §5

[7] = low concentrations (between 0.001 nM and 0.1 nM), FIG. 5A

NS(=O)(=O)c1c(F)c(F)c(SCCC(=O)NCCOCCOCCOCCOCCOCCOCCNC(=S)Nc2ccc(-c3c4ccc(=O)cc-4oc4cc(O)ccc34)c(C(=O)O)c2)c(F)c1NC1CCCCCCC1 [ortho-CAL-PEG6-FITC]
staining of anti-FITC antibody (MFI of APC-anti-FITC after staining with 100 nM meta-CAL-PEG6-FITC in vitro) (MDA-CAIX tumor cells; MDA-CAIX tumor cells from treated mice, FIG. 11E): almost no staining of anti-FITC antibody | CAIX levels of tumor cells (MFI of FITC after staining with 100 nM meta-CAL-PEG6-FITC in vitro) (MDA-CAIX tumor cells): complete eradication of CAIX^+ tumor cells by CAR T cells | growth of MDA-CAIX tumors (tumor volume) (MDA-CAIX tumors): significantly inhibited the growth of MDA-CAIX tumors | body weight change [1]: did not induce significant body weight loss; also recorded: didn't induce significant body weight loss | IFNγ released from anti-FITC CAR-T cells ([2]; ELISA, FIGS. 14, 15): lower levels of IFNγ released from anti-FITC CAR-T cells

NS(=O)(=O)c1c(F)c(F)c(S(=O)(=O)CCC(=O)NCCOCCOCCOCCOCCOCCOCCOCCOCCOCCNC(=S)Nc2ccc(-c3c4ccc(=O)cc-4oc4cc(O)ccc34)c(C(=O)O)c2)c(NC2CCCCCCC2)c1F [meta-CAL-PEG9-FITC]
body weight change [3]: lost body weight | growth of HT29 tumor (tumor volume) (HT29 tumor): significantly inhibited the growth of HT29 tumor | efficacy of anti-FITC CAR-T cell cytotoxicity, lysis (%) (MDA-CAIX cells [4]; [7]): higher efficacy than meta-CAL-PEG3-FITC | IFNγ release from anti-FITC CAR-T cells [5]: higher levels of IFNγ release from anti-FITC CAR-T cells than meta-CAL-PEG3-FITC | surface retention and FITC exposure in HT29 tumors (MFI of APC-anti-FITC) (HT29 tumor cells): better FITC exposure than meta-CAL-PEG3-FITC | IFNγ released from anti-FITC CAR-T cells ([2]; low concentrations (<0.1 nM), FIG. 15): highest level of IFNγ released from anti-FITC CAR-T cells | T cell counts in blood (T cells; anti-human CD3 staining, FIG. 9A): more T cells than the blood from other treatment groups | tumor-infiltrated T cells (CD3+ T cells/live cells) (T cells; digested tumors, FIG. 9B): more tumor-infiltrated T cells

NS(=O)(=O)c1nnc(NC(=O)CCCCCCCNC(=S)Nc2ccc(-c3c4ccc(=O)cc-4oc4cc(O)ccc34)c(C(=O)O)c2)s1 [Aza-FITC]
CAIX levels of tumor cells (MFI of FITC after staining with 100 nM meta-CAL-PEG6-FITC in vitro) (MDA-CAIX tumor cells): slightly higher CAIX levels than tumors treated with meta-CAL-FITC with PEG3 or PEG6 | total binding to HT29 cells (MFI of FITC) (HT29 cells): better total binding to HT29 cells than the other adapters | growth of HT29 tumor (tumor volume) (HT29 tumor): slightly inhibited the growth of HT29 tumor | total binding to MDA-CAIX cells (MFI of FITC) (MDA-CAIX cells [6]): better total binding to MDA-CAIX cells

NS(=O)(=O)c1c(F)c(F)c(S(=O)(=O)CCC(=O)NCCOCCOCCOCCOCCOCCOCCNC(=S)Nc2ccc(-c3c4ccc(=O)cc-4oc4cc(O)ccc34)c(C(=O)O)c2)c(NC2CCCCCCC2)c1F [meta-CAL-PEG6-FITC]
surface retention and FITC exposure in MDA-CAIX tumors (MFI of APC-anti-FITC) (MDA-CAIX tumor cells; 24 hours after last injection at 500 nmol/kg, FIG. 11D): slightly better surface retention and FITC exposure than the other compounds | efficacy of anti-FITC CAR-T cell cytotoxicity, lysis (%) (MDA-CAIX cells [4]; adapter between 0.001 nM and 10 nM, equal number of CAR-T and MDA-CAIX cells, FIG. 4A): higher than ortho-CAL-PEG6-FITC and Aza-FITC | efficacy of anti-FITC CAR-T cell cytotoxicity, lysis (%) (MDA-CAIX cells [4]; [7]): higher efficacy than meta-CAL-PEG3-FITC | IFNγ release from anti-FITC CAR-T cells [5]: higher level of IFNγ release from anti-FITC CAR-T cells than ortho-CAL-PEG6-FITC and Aza-FITC; also recorded: higher levels of IFNγ release from anti-FITC CAR-T cells than meta-CAL-PEG3-FITC | surface retention and FITC exposure in HT29 tumors (MFI of APC-anti-FITC) (HT29 tumor cells): better FITC exposure than meta-CAL-PEG3-FITC

NS(=O)(=O)c1c(F)c(F)c(S(=O)(=O)CCC(=O)NCCOCCOCCOCCNC(=S)Nc2ccc(-c3c4ccc(=O)cc-4oc4cc(O)ccc34)c(C(=O)O)c2)c(NC2CCCCCCC2)c1F [meta-CAL-PEG3-FITC]
growth of MDA-CAIX tumors (tumor volume) (MDA-CAIX tumors): slightly inhibited the growth of MDA-CAIX tumors | total binding to HT29 cells (MFI of FITC) (HT29 cells): better total binding to HT29 cells than the other adapters | growth of HT29 tumor (tumor volume) (HT29 tumor): slightly inhibited the growth of HT29 tumor
